The supplement of paper PMC10307832

Columns and labels:
Experiment in all cases: relative viability (nuclei count vs DMSO), 5 days (fraction); higher = more cells survive
NCI-H3122 = test system: NCI-H3122
Procedure, shortened: (§1)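 Cells from lung cancer lines were seeded into 1536-well plates and, one day later, dosed by pin tool. Treatments were either a single drug or a fixed dose of an anchor drug with five library-drug doses (not always all listed) in √10 steps. After 5 days, nuclei were stained in a one-step fixation (final 0.05% Triton X-100, 1% formaldehyde, 1 ug/ml Hoechst) and counted on 4× images, and relative viability is the treated-to-vehicle nuclei ratio, as the median of duplicate plates.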

NCI-H441 = test system: NCI-H441
Procedure, shortened: as §1

NCI-H661 = test system: NCI-H661
Procedure, shortened: as §1

HCC-366 = test system: HCC-366
Procedure, shortened: as §1

NCI-H1650 = test system: NCI-H1650
Procedure, shortened: as §1

201T = test system: 201T
Procedure, shortened: as §1

LOU-NH91 = test system: LOU-NH91
Procedure, shortened: as §1

LK-2 = test system: LK-2
Procedure, shortened: as §1

NCI-H1666 = test system: NCI-H1666
Procedure, shortened: as §1

NCI-H460 = test system: NCI-H460
Procedure, shortened: as §1

ABC-1 = test system: ABC-1
Procedure, shortened: as §1

SW 900 = test system: SW 900
Procedure, shortened: as §1

HARA = test system: HARA
Procedure, shortened: as §1

BEN = test system: BEN
Procedure, shortened: as §1

EKVX = test system: EKVX
Procedure, shortened: as §1

NCI-H2170 = test system: NCI-H2170
Procedure, shortened: as §1

NCI-H2009 = test system: NCI-H2009
Procedure, shortened: as §1

NCI-H1437 = test system: NCI-H1437
Procedure, shortened: as §1

PC-14 = test system: PC-14
Procedure, shortened: as §1

CAL-12T = test system: CAL-12T
Procedure, shortened: as §1

NCI-H727 = test system: NCI-H727
Procedure, shortened: as §1

COR-L 105 = test system: COR-L 105
Procedure, shortened: as §1

## COc1cc2nccc(Oc3ccc(NC(=O)Nc4cc(C)on4)c(Cl)c3)c2cc1OC [Tivozanib] + O=C(CCCCCCC(=O)Nc1ccccc1)NO [Vorinostat] (partner 1 µM)
NCI-H3122; first compound 0.005 µM
  relative viability: 0.644
NCI-H3122; first compound 0.01581 µM
  relative viability: 1.12
NCI-H3122; first compound 0.05 µM
  relative viability: 0.97
NCI-H3122; first compound 0.1581 µM
  relative viability: 1.03
NCI-H3122; first compound 0.5 µM
  relative viability: 0.822
NCI-H441; first compound 0.005 µM
  relative viability: 0.765
NCI-H441; first compound 0.01581 µM
  relative viability: 0.771
NCI-H441; first compound 0.05 µM
  relative viability: 0.743
NCI-H441; first compound 0.1581 µM
  relative viability: 0.801
NCI-H441; first compound 0.5 µM
  relative viability: 0.745
NCI-H661; first compound 0.005 µM
  relative viability: 0.782
NCI-H661; first compound 0.01581 µM
  relative viability: 0.776
NCI-H661; first compound 0.05 µM
  relative viability: 0.789
NCI-H661; first compound 0.1581 µM
  relative viability: 0.8
NCI-H661; first compound 0.5 µM
  relative viability: 0.802
HCC-366; first compound 0.005 µM
  relative viability: 0.333
HCC-366; first compound 0.01581 µM
  relative viability: 0.323
HCC-366; first compound 0.05 µM
  relative viability: 0.312
HCC-366; first compound 0.1581 µM
  relative viability: 0.305
HCC-366; first compound 0.5 µM
  relative viability: 0.244
NCI-H1650; first compound 0.005 µM
  relative viability: 0.638
NCI-H1650; first compound 0.01581 µM
  relative viability: 0.529
NCI-H1650; first compound 0.05 µM
  relative viability: 0.712
NCI-H1650; first compound 0.1581 µM
  relative viability: 0.606
NCI-H1650; first compound 0.5 µM
  relative viability: 0.545
201T; first compound 0.005 µM
  relative viability: 0.983
201T; first compound 0.01581 µM
  relative viability: 0.99
201T; first compound 0.05 µM
  relative viability: 1
201T; first compound 0.1581 µM
  relative viability: 0.899
201T; first compound 0.5 µM
  relative viability: 0.974
LOU-NH91; first compound 0.005 µM
  relative viability: 0.754
LOU-NH91; first compound 0.01581 µM
  relative viability: 0.952
LOU-NH91; first compound 0.05 µM
  relative viability: 0.908
LOU-NH91; first compound 0.1581 µM
  relative viability: 0.782
LOU-NH91; first compound 0.5 µM
  relative viability: 0.761
LK-2; first compound 0.005 µM
  relative viability: 0.317
LK-2; first compound 0.01581 µM
  relative viability: 0.352
LK-2; first compound 0.05 µM
  relative viability: 0.33
LK-2; first compound 0.1581 µM
  relative viability: 0.185
LK-2; first compound 0.5 µM
  relative viability: 0.186
NCI-H1666; first compound 0.005 µM
  relative viability: 1.07
NCI-H1666; first compound 0.01581 µM
  relative viability: 1.01
NCI-H1666; first compound 0.05 µM
  relative viability: 1.11
NCI-H1666; first compound 0.1581 µM
  relative viability: 1.09
NCI-H1666; first compound 0.5 µM
  relative viability: 0.978
NCI-H460; first compound 0.005 µM
  relative viability: 0.651
NCI-H460; first compound 0.01581 µM
  relative viability: 0.741
NCI-H460; first compound 0.05 µM
  relative viability: 0.748
NCI-H460; first compound 0.1581 µM
  relative viability: 0.76
NCI-H460; first compound 0.5 µM
  relative viability: 0.569
ABC-1; first compound 0.005 µM
  relative viability: 0.694
ABC-1; first compound 0.01581 µM
  relative viability: 1.11
ABC-1; first compound 0.05 µM
  relative viability: 1.3
ABC-1; first compound 0.1581 µM
  relative viability: 0.926
ABC-1; first compound 0.5 µM
  relative viability: 0.842
SW 900; first compound 0.005 µM
  relative viability: 0.459
SW 900; first compound 0.01581 µM
  relative viability: 0.481
SW 900; first compound 0.05 µM
  relative viability: 0.627
SW 900; first compound 0.5 µM
  relative viability: 0.464
HARA; first compound 0.005 µM
  relative viability: 0.422
HARA; first compound 0.01581 µM
  relative viability: 0.456
HARA; first compound 0.05 µM
  relative viability: 0.594
HARA; first compound 0.1581 µM
  relative viability: 0.563
HARA; first compound 0.5 µM
  relative viability: 0.507
BEN; first compound 0.005 µM
  relative viability: 0.577
BEN; first compound 0.01581 µM
  relative viability: 0.572
BEN; first compound 0.05 µM
  relative viability: 0.586
BEN; first compound 0.1581 µM
  relative viability: 0.527
BEN; first compound 0.5 µM
  relative viability: 0.522
EKVX; first compound 0.005 µM
  relative viability: 0.787
EKVX; first compound 0.01581 µM
  relative viability: 0.684
EKVX; first compound 0.05 µM
  relative viability: 0.803
EKVX; first compound 0.5 µM
  relative viability: 0.765
NCI-H2170; first compound 0.005 µM
  relative viability: 0.74
NCI-H2170; first compound 0.01581 µM
  relative viability: 0.782
NCI-H2170; first compound 0.05 µM
  relative viability: 0.856
NCI-H2170; first compound 0.5 µM
  relative viability: 0.816
NCI-H2009; first compound 0.005 µM
  relative viability: 0.623
NCI-H2009; first compound 0.01581 µM
  relative viability: 0.785
NCI-H2009; first compound 0.05 µM
  relative viability: 0.741
NCI-H2009; first compound 0.1581 µM
  relative viability: 0.738
NCI-H2009; first compound 0.5 µM
  relative viability: 0.621
NCI-H1437; first compound 0.005 µM
  relative viability: 0.769
NCI-H1437; first compound 0.01581 µM
  relative viability: 0.876
NCI-H1437; first compound 0.05 µM
  relative viability: 0.815
NCI-H1437; first compound 0.1581 µM
  relative viability: 0.746
NCI-H1437; first compound 0.5 µM
  relative viability: 0.712
PC-14; first compound 0.005 µM
  relative viability: 0.728
PC-14; first compound 0.01581 µM
  relative viability: 0.792
PC-14; first compound 0.05 µM
  relative viability: 0.711
PC-14; first compound 0.1581 µM
  relative viability: 0.695
PC-14; first compound 0.5 µM
  relative viability: 0.58
CAL-12T; first compound 0.005 µM
  relative viability: 0.842
CAL-12T; first compound 0.01581 µM
  relative viability: 0.744
CAL-12T; first compound 0.05 µM
  relative viability: 0.891
CAL-12T; first compound 0.1581 µM
  relative viability: 0.539
CAL-12T; first compound 0.5 µM
  relative viability: 0.473
NCI-H727; first compound 0.005 µM
  relative viability: 1.15
NCI-H727; first compound 0.01581 µM
  relative viability: 1.26
NCI-H727; first compound 0.05 µM
  relative viability: 1.3
NCI-H727; first compound 0.1581 µM
  relative viability: 0.841
NCI-H727; first compound 0.5 µM
  relative viability: 1.22
COR-L 105; first compound 0.005 µM
  relative viability: 0.696
COR-L 105; first compound 0.01581 µM
  relative viability: 0.743
COR-L 105; first compound 0.05 µM
  relative viability: 0.801
COR-L 105; first compound 0.1581 µM
  relative viability: 0.821
COR-L 105; first compound 0.5 µM
  relative viability: 0.794
